According to US20230390373A1, “A LIVE STRAIN OF STAPHYLOCOCCUS AUREUS AND USES THEREOF” (priority 2020, published 2023):
Entries after “also recorded” stand apart in the source; their conditions may differ. Residues, ends and D or L forms follow the SMILES beside them. *: point of attachment. Cbz = O=C(OCc1ccccc1)*; CH2F = FC*

How the values were obtained:
[1] = tested on: mouse bone marrow derived dendritic cells (BMDC); experiment: IL-1β release / inflammasome activation in infected BMDC; type: cell-based; conditions: MOI=20, 6 hours; for IL-1β production/release in S. aureus infected BMDC: MCC950 10 μM, Cytochalasin D 5 μM, ZM241385 10 μM
Description: (§1) Bone marrow cells extracted from femur of 8-12 weeks old female BALB/c mice were culture in RPMI-1640 medium supplemented with L-glutamine, 10% heat inactivated-FBS, 1×penicillin/streptomycin, 10 mM HEPES, 50 μM-β mercaptoethanol, 20 ng/ml mGM-CSF (PeproTech) for up to 7 days differentiation.
One day before bacterial infection experiments, S. aureus strains were inoculated and cultured with BHI broth for overnight. Next day, overnight culture of bacteria strains were sub-cultured in fresh BHI broth at a dilution of 1:100 and grown at 37° C. Following 3 hours of culturing, S. aureus were harvested and washed for two to three times in cold PBS by centrifugation. Finally, S. aureus strains were diluted with desired volume of PBS, yielding an OD600 of 0.5 (1×10^8 CFU/ml), and further centrifuged and resuspended at desired bacterial concentration. The number of bacteria was determined by serial dilution and colony formation on BHI agar plates. Mammalian cells were plated in 24-well plates at a number of 4×10^5 per well and infected with S. aureus strains in antibiotic free medium at the indicated MOI.
(§2) Culture supernatants of relevant cells were collected and centrifuged at 13000 rpm for 4 min to get rid of cell debris and bacteria. Levels of LDH in culture supernatants were measured by CytoTox 96 Non-Radioactive Cytotoxicity Assay kit (Promega). Cell viability was measured by the CellTiter Glo Luminescent Cell Viability Assay (Promega). ELISA assay was conducted according manufactures' instructions.
For detection of cleaved form of caspase-1, cell culture supernatants were precipitated by methanol-chloroform method. Briefly, supernatant was mixed with an equal volume of methanol and 0.25 volumes of chloroform, vortexed and centrifuge for 15 min at 20000 g. The upper phase was discarded and the interphase was mixed with methanol. After centrifugation for 5 min at 20000 g, the pellet was resuspended in 2×SDS-PAGE sample buffer and boiled for 5 min at 100° C. Protein samples were separated by 15% SDS-PAGE gels and were transferred onto PVDF membranes. Total cell lysates lysed by RIPA buffer (50 mM Tris-Cl, pH 7.4, 150 mM NaCl, 1% Triton X-100, 0.1% SDS, 1% sodium deoxycholate and 0.5 mM EDTA) supplemented with 1× protease inhibitor cocktail (Roche) were boiled for 5 min at 100° C. Lysate aliquots were separated by SDS-PAGE gels and transferred onto PVDF membranes. Blots were probed with primary antibody: rabbit anti-caspase-1 (1:1000 dilution, 179515 from Abcam, USA), mouse anti-β actin (1:5000 dilution, A5316 from Sigma). Anti-rabbit or mouse antibodies conjugated to HRP were used as secondary reagents.

[2] = tested on: BALB/c mice; experiment: Th17 response in inhibitor-pretreated mice infected with wild type S. aureus; type: in vivo; conditions: splenocytes re-stimulated MOI=5, 4 days
Description: Protocol for harvest and calculation of wild type and variant S. aureus strains was the same as described above. To induce systemic blood infection model of S. aureus in FIG. 1, 200 ul of bacterial suspension (1×10^7 CFU) was administered intravenously into naïve 6-wk-old female BALB/c mice. To establish re-infection model in FIG. 5, mice were intraperitoneally infected with WT S. aureus (USA300), adsA mutant strain or WT S. aureus (USA300)/adsA mutant strain (4×10^7 CFU) for a total of 3 times at 7 days interval. After 14 days convalescent period, mice were re-challenged with lethal dose of WT USA300 S. aureus (4×10^7 CFU) or sublethal dose of WT USA300 S. aureus (2×10^7 CFU). Upon bacterial infection, health conditions of mice were frequently monitored in compliance with humane end points (HEP) form. To measure staphylococcal burden in blood, after 2 h of i.v. infection, mice were anaesthetized by intraperitoneal injection of 80-120 mg ketamine and 3-6 mg xylazine per kilogram of body weight and blood was collected via tail vein. Blood samples were incubated on ice in 0.5% saponin/PBS for lysis of host cells. Later on, serial dilutions were performed on BHI agar plates for colony formation. To enumerate bacteria in tissues, mice were euthanized by CO2 inhalation, organs including lungs, spleens and kidneys were harvested and homogenized in 1% Triton X-100/PBS. Aliquots of homogenates were serially diluted and spread on BHI agar plates for colony formation. For histopathology, kidneys were incubated in 4% paraformaldehyde (PFA) at room temperature for 24 h. Tissues were embedded in paraffin, thin sectioned, stained with hematoxylin-eosin, and examined by microscopy.
Animals were sacrificed at indicated time points in re-infection model. Spleens were harvested and grinded for cells suspension. After centrifugation, splenocytes were experienced red blood cell lysing, washes and filtering, and single cells suspension was cultured in RPMI-1640 media supplemented with 10% FBS, 100 U/ml penicillin and […]. […]

[3] = tested on: HMDM; experiment: Cell viability assay of infected HMDM; type: cell-based, human; conditions: MOI=100, 8 hours, Z-VADFMK 25 μM, VX765 20 μM, NSA 5 μM
Description: Human peripheral blood mononuclear cells (PBMC) were isolated from human buffy coat (provided by Department of Microbiology, The University of Hong Kong, Li Ka Shing Faculty of Medicine) by Ficoll-Paque gradient protocol. In brief, 30 mL of 1:1 PBS diluted buffy coat from healthy donors were layered on Ficoll-Paque Plus (GE Healthcare, Life Sciences) and centrifuged at 450×g for 30 min at room temperature. Separated layers of PBMC were collected and then washed 2 times with RPMI-1640 medium. After washing, the cells were resuspended in 4 mL red blood cell lysing buffer (Biolegend, RBC Lysis Buffer) and incubated for 5 min at room temperature. Following two subsequent washes, the cell pellet was resuspended in RPMI-1640 media supplemented with 10% FBS, 100 U/ml penicillin and 0.1 mg/ml streptomycin for further infection experiments. To differentiate human monocytes-derived macrophages (HMDM), isolated PBMC were seeded on poly-L-lysine coated coverslips in 24 well plate and cultured in RPMI-1640 media supplemented with L-glutamine, 10% FBS, 1×penicillin/streptomycin, 10 mM HEPES, 50 ng/mL hGM-CSF (PeproTech) for up to 7 days differentiation.
One day before bacterial infection experiments, S. aureus strains were inoculated and cultured with BHI broth for overnight. Next day, overnight culture of bacteria strains were sub-cultured in fresh BHI broth at a dilution of 1:100 and grown at 37° C. Following 3 hours of culturing, S. aureus were harvested and washed for two to three times in cold PBS by centrifugation. […] The number of bacteria was determined by serial dilution and colony formation on BHI agar plates. […]
as §2, with “ELISA assay was conducted according manufactures' instructions.” left out

[4] = tested on: NLRP3; experiment: NLRP3 expression in BMDC (qPCR, immunoblot); type: cell-based, mouse; conditions: 4 hours
Description: as §1
For detection of cleaved form of caspase-1, cell culture supernatants were precipitated by methanol-chloroform method. Briefly, supernatant was mixed with an equal volume of methanol and 0.25 volumes of chloroform, vortexed and centrifuge for 15 min at 20000 g. The upper phase was discarded and the interphase was mixed with methanol. After centrifugation for 5 min at 20000 g, the pellet was resuspended in 2×SDS-PAGE sample buffer and boiled for 5 min at 100° C. Protein samples were separated by 15% SDS-PAGE gels and were transferred onto PVDF membranes. […]
Total RNA was extracted from cells using TRIzol Reagent (Invitrogen) and 1 μg total RNA was used for reverse transcription (Takara) according to manufactures' instructions. The cDNA was then used for quantitative RT-PCR to analyze relevant mRNA expression using Applied Biosystems StepOnePlus™ Real-Time PCR System and SYBR Premix Ex Taq kit (Takara) according to the manufacturer's instruction. The data were normalized to GAPDH and fold change in gene expression was calculated by comparative CT method (2^−ΔΔCT).

Structure (SMILES) | IL-1β production/release in S. aureus infected BMDC [1] | Th17 response / IL-17A production vs vehicle control [2] | effect on S. aureus / adsA mutant-induced cell death [3] | other results
C=C1[C@@H](C)[C@H]2[C@H](Cc3ccccc3)NC(=O)[C@]23[C@H](OC(C)=O)/C=C/[C@@](C)(O)C(=O)[C@@H](C)C/C=C/[C@H]3[C@@H]1O [Cytochalasin D] | nearly suppressed IL-1β production |  |  | IL-1β production/release in S. aureus infected BMDC ([1]; listed as cytochalasin D): had little IL-1β production
CC(C)(O)c1coc(S(=O)(=O)NC(=O)Nc2c3c(cc4c2CCC4)CCC3)c1 [MCC950] | largely dampen IL-1β production; also recorded: almost prevented the release of IL-1β; also recorded: had little IL-1β production | decreased IL-17A production |  | 
CCO[C@@H]1OC(=O)C[C@@H]1NC(=O)[C@@H]1CCCN1C(=O)[C@@H](NC(=O)c1ccc(N)c(Cl)c1)C(C)(C)C [VX765] |  | decreased IL-17A production | dramatically decrease adsA mutant-induced cell death | 
COC(=O)C[C@H](NC(=O)[C@H](C)NC(=O)[C@@H](NC(=O)OCc1ccccc1)C(C)C)C(=O)CF [Z-VAD-FMK] (Cbz-Val-Ala-Asp(OMe)-CH2F) |  |  | dramatically decrease adsA mutant-induced cell death | 
Nc1nc(NCCc2ccc(O)cc2)nc2nc(-c3ccco3)nn12 [ZM241385] | improved IL-1β production |  |  | 
Nc1ncnc2c1ncn2[C@@H]1O[C@H](CO)[C@@H](O)[C@H]1O [adenosine, Adenosine] |  |  |  | inflammasome activation (IL-1β release and immunoblot) in BMDC infected with adsA mutant ([1]; pretreated with adenosine 100 μM): impaired inflammasome activation; expression level of NLRP3 (qPCR) ([4]; BMDC activated by adsA mutant S. aureus or Pam3CSK4 / LPS (100 ng/ml), adenosine 100 μM): decreased the expression level of NLRP3; NLRP3 expression at protein level ([4]; BMDC pre-treated with a series of dose of adenosine, LPS 100 ng/ml): inhibited NLRP3 expression at protein level in a dose-dependent manner
Cn1c(=O)c2c(ncn2C)n(C)c1=O [caffeine, Caffeine] |  | did not have any influence on Th17 immunity |  | 
COc1nccnc1NS(=O)(=O)c1ccc(NC(=O)/C=C/c2ccc([N+](=O)[O-])s2)cc1 [necrosulfonamide, Necrosulfonamide] |  |  | did not have apparent effect on S. aureus induced cytotoxicity | 
